Data from PubChem BioAssay (NCI).
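How tested: cells in 96-well plates exposed to compound for 48 hours at five concentrations. TGI marks complete inhibition of growth.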

Columns and labels:
Test in all cases: DTP human tumour cell line panel, 48 h
[1] = tested on: RPMI-8226 leukemia
[2] = tested on: CCRF-CEM leukemia
[3] = tested on: EKVX NSCLC
[4] = tested on: M14 melanoma
[5] = tested on: SF-268 CNS
[6] = tested on: NCI-H23 lung
[7] = tested on: IGROV1 ovarian
[8] = tested on: U251 CNS
[9] = tested on: HL-60(TB) leukemia
[10] = tested on: SK-MEL-28 melanoma
[11] = tested on: HCC-2998 colon
[12] = tested on: UO-31 renal
[13] = tested on: NCI-H226 lung
[14] = tested on: OVCAR-3 ovarian
[15] = tested on: OVCAR-4 ovarian

SMILES | TGI [1] [µM] | TGI [2] [µM] | TGI [3] [µM] | TGI [4] [µM] | TGI [5] [µM] | TGI [6] [µM] | TGI [7] [µM] | TGI [8] [µM] | TGI [9] [µM] | TGI [10] [µM] | TGI [11] [µM] | TGI [12] [µM] | TGI [13] [µM] | TGI [14] [µM] | TGI [15] [µM]
CCOc1ccc(NC(=O)/C=C/c2ccco2)cc1 | > 100 | > 100 | > 100 | > 100 | > 100 | > 100 | > 100 | > 100 | 44.5 | > 100 | > 100 | > 100 | > 100 | – | –
CCC(=O)NC(NNS(=O)(=O)c1ccc(C)cc1)(C(F)(F)F)C(F)(F)F | > 100 | > 100 | > 100 | > 100 | > 100 | > 100 | > 100 | > 10 | > 100 | 61.5 | > 10 | > 100 | > 100 | > 10 | –
N#Cc1ccc(N=NN2CCCC2)cc1 | > 100 | > 100 | > 100 | > 100 | > 100 | > 100 | > 100 | > 100 | > 100 | – | > 100 | > 100 | > 100 | > 100 | > 100
O=C(O)CNc1ncc2c(n1)-c1ccccc1OC2 | > 100 | > 100 | > 100 | > 100 | > 100 | > 100 | > 100 | > 100 | > 100 | > 100 | – | > 100 | – | > 100 | > 100
ON[C@@H]1C=C[C@H](n2cnc3c(NC4CC4)ncnc32)C1 | > 100 | > 100 | > 100 | > 100 | > 100 | > 100 | > 100 | > 100 | – | > 100 | > 100 | > 100 | > 100 | > 100 | > 100
COc1cccc(C2c3cc4c(cc3OC(N3CCCC3)C2c2ccccc2)OCO4)c1O (stereo not given) | 31 | 24.6 | 73.3 | 25.4 | 46.4 | 36.2 | 47.8 | – | – | 28.1 | 23.9 | 20.1 | – | 27.8 | –
CC(C)(CO)CNc1nc(N)nc(Cl)c1C=O | > 100 | 83.9 | > 100 | – | 42.2 | > 100 | 46.4 | > 100 | 17.7 | 83.8 | 21.3 | > 100 | > 100 | 62.8 | > 100
CC(Oc1ccc(Cl)cc1Cl)C(=O)NN1C(=O)CC(=O)NC1=S (stereo not given) | > 100 | – | > 100 | > 100 | > 100 | > 100 | > 100 | > 100 | 91.8 | > 100 | > 100 | > 100 | > 100 | > 100 | > 100
O=C(NC1C(=O)NC(CCc2ccccc2)NC1=O)OCc1ccccc1 (stereo not given) | > 100 | > 100 | > 100 | > 100 | > 100 | > 100 | > 100 | > 100 | > 100 | > 100 | – | > 100 | > 100 | > 100 | > 100
Cc1cc(O)c(C(O)c2ccccn2)cc1O (stereo not given) | 67.4 | 38.4 | 36.5 | 38.4 | > 100 | 42.6 | > 100 | > 100 | 53 | 33.5 | 70.3 | 33.5 | – | 28.6 | –
CSCCCNC(=O)c1csc(-c2csc(CCNC(=O)CNC(=O)OC(C)(C)C)n2)n1 | – | > 100 | > 100 | > 100 | > 100 | > 100 | > 100 | > 100 | – | > 100 | > 100 | > 100 | > 100 | > 100 | > 100
O=C(N/N=C\c1ccc([N+](=O)[O-])cc1)Nc1ccc2ccccc2c1 | > 100 | > 100 | > 100 | > 100 | > 100 | > 100 | > 100 | 45.8 | – | > 100 | 62.9 | > 100 | > 100 | > 100 | 46.2
CSc1cc(Cl)c(C(=O)Nc2ccccc2)cc1S(=O)(=O)n1cc[nH]c1=O | > 100 | > 100 | > 100 | > 100 | > 100 | > 100 | > 100 | > 100 | > 100 | > 100 | > 100 | > 100 | – | > 100 | > 100
COc1cccc(-c2nc(N)c(C#N)c3c2CCS(=O)(=O)c2ccc(C)cc2-3)c1 | – | 65.1 | > 100 | > 100 | > 100 | > 100 | > 100 | > 100 | 37.5 | > 100 | > 100 | > 100 | > 100 | > 100 | > 100
CC(C)CC1C(=O)OC(C)(C)OC1=O | > 100 | > 100 | > 100 | > 100 | > 100 | > 100 | > 100 | > 100 | – | > 100 | > 100 | > 100 | > 100 | > 100 | > 100
COC(=O)C1=CCC[C@H]2[C@@]1(COC(C)=O)CC[C@@H](C)[C@]2(C)CC(=O)c1ccoc1 | 29.6 | 25.3 | > 50 | > 50 | > 50 | 47.2 | > 50 | > 50 | 24.5 | – | 37.5 | > 50 | > 50 | > 50 | > 50
CC1=NN(c2ccccc2Cl)C2(C1)C(Cl)C(=O)N2c1nc2ccccc2s1 (stereo not given) | 58.6 | – | > 100 | > 100 | > 100 | > 100 | > 100 | 76.5 | 60.6 | – | > 100 | > 100 | > 100 | 53.1 | > 100
